# Test results taken from patent US3956328A, “S-triazolo(1,5-a)pyridine derivative” (Kyorin Seiyaku Kabushiki Kaisha, priority 1973, dated 1976).
# Where “and” joins values, the source holds several entries; their conditions need not be identical. Identical values can stand only once. Entries after “also recorded” stand apart in the source; their conditions may differ.
# Columns and labels:
# [1] = Acute oral toxicity in rats; conditions: rat, in vivo
# Experimental: (§1) That of homochlorcyclyzine used as a standard drug is reported to be 353 mg/kg for mice.
# [2] = test system: guinea pig ileum; assay: Schultz-Dale reaction in guinea pig ileum sensitized actively with egg albumin; conditions: actively-sensitized guinea pig ileum
# Experimental: Male guinea pigs are actively sensitized and their ileum preparations are treated by Schultz-Dales method (J. Pharmacol. Exp. Ther., 4, 167, 1913). […] These preceeding pharmacological properties of the present compound are due to triazolo [1,5-a]pyridine.
# [3] = test system: histamine-induced asthma attack; assay: Inhibitory action on histamine-induced asthma attack in guinea pigs; assay type: in vivo, guinea pig; conditions: for z1 (statistical value): Mann and Whitney U test
# Experimental: Inhibitory actions on histamine-induced asthma attack: Male guinea pigs, of about 300 g body weight are used. Asthma attack is provoked by an aerosol of 0.2% histamine dihydrochloride solution in physiological saline for 10 minutes. The inhibitory actions are examined by shock grades, No. of collapsed guinea pigs/No. of provoked guinea pigs and survival rate. The tested compounds are orally given 2 hrs. prior to spraying of histamine solution.
# A/B: No. of collapsed guinea pigs/ No. of provoked guinea pigs.
# Statistical comparisons were carried out with the Mann and Whtineys' U
# [4] = test system: heterologous PCA in guinea pigs; assay: Heterologous passive cutaneous anaphylaxis (PCA) in guinea pigs; assay type: in vivo, guinea pig; conditions: 25 mg/kg po, 30 min. before challenge; rabbit antiserum to egg albumin
# Experimental: Male guinea pigs are passively sensitized by the intradermal injection of rabbit antiserum to egg albumin and challenged by the intravenous injection of egg albumin 4 hrs. after the sensitization. The test compounds are orally given 30 min. before the challenge.
# [5] = test system: guinea pig tracheal chain strips; assay: Anti histaminic action: histamine-induced contraction of guinea pig tracheal chain strips; conditions: 4×10^^-5 M; Tyrodes solution
# [6] = Acute oral toxicity in mice; assay type: in vivo; conditions: mouse, in vivo, po
# Experimental: as §1
# [7] = test system: ddN mice; assay: Acute oral toxicity in mice; assay type: in vivo; conditions: acute oral
# Experimental: as §1
# [8] = test system: anti acetylcholinergic action; assay: Anti cholinergic action
# [9] = test system: BSA induced asthma in guinea pigs; assay: Inhibitory action on BSA-induced (experimentally allergic) asthma attack in passively sensitized guinea pigs; assay type: in vivo, guinea pig; parameters: key to z1 (statistical value vs non treatment): Mann-Whitney U z statistic, treated vs non-treated; conditions: for p (statistical significance vs non treatment) / z1 (statistical value vs non treatment) / p (present compound vs homochlorcyclizine) / z2 (statistical value, present compound vs homochlorcyclizine): severity; for z1 (statistical value vs non treatment) / z2 (statistical value, present compound vs homochlorcyclizine): Mann and Whitney U test
# Experimental: The present compound is studied on asthma attacks induced by the antigen-antibody reaction in guinea pigs. The guinea pigs are sensitized passively by the injection of 0.1 to 0.3 ml /100g body weight of rabbit antiserum to BSA (bovine serum albumin) into the ear vein. Forty six hours after passive sensitization, the guinea pigs are orally given the tested compounds. Two hours after oral administration, the asthma attack is provoked by an aerosol injection (0.1 ml/min.) of 1% BSA solution in physiological saline into the plastic chamber in which the testing guinea pig is placed. The symptoms of the asthma attack are observed for 10 minutes and scored on the following shock indices. The shock indices are examined by the shock grades, No. of collapsed guinea pigs/No. of used animals and survival rate.
# The shock grades are as follows:
# 1 slight stimulation of expiration
# 2 stimulation of expiration (labored expiration)
# 3 attack of singultation
# 4 the strongest attack of collapse and struggle
# but recovery from collapse within 5 minutes
# 5 recovery from collapse within 5 to 10 minutes
# 6 interruption of expiration to death within 10
# *Statistical comparisons were carried out with the Mann and Whitneys' U
# z1 : The statistical value between non treatment and each tested
# z2 : The statistical value between the present compound and […]
# [10] = test system: homologous PCA in rats; assay: Homologous PCA in Wistar rats; assay type: in vivo, rat (Wistar); conditions: for Inhibition % of extravasation of blue dye: Wistar, egg albumin, 30 min. before challenge, 72 hrs. after sensitization
# From the text: (§2) Male wistar or SD rats are passively sensitized by Motas method (Immunology 7, 681, 1964) and challenged by the intravenous injection of wistar or SD rat antiserum to egg albumin or horse serum. The inhibitory action of the present compound on homologous PCA (induced by reaginlike, mast cell sensitizing antibody) is shown in Table 5.
# [11] = test system: homologous PCA in rats; assay: Homologous PCA in SD rats; assay type: in vivo, rat (SD)
# From the text: as §2
# [12] = 2.50 mg/kg p.o. vs homochlorcyclizine (250 mg/kg (so in the source))
# [13] = antiserum 0.1 ml/100 g, 0.5 mg/kg p.o.
# [14] = antiserum 0.1 ml/100 g, 1.0 mg/kg p.o.
# [15] = antiserum 0.1 ml/100 g, 5.0 mg/kg p.o.
# [16] = antiserum 0.2 ml/100 g, 5 mg/kg p.o.
# [17] = antiserum 0.3 ml/100 g, 5 mg/kg p.o.
compound,measurement,setting,value
"c1ccc(C(c2ccccc2)N2CCN(CCCc3nc4ccccn4n3)CC2)cc1 [the present compound, 2-[3-(4-diphenylmethyl-1-piperazinyl)propyl] -s-triazolo[1,5-a]pyridine]",LD50,"[1]; male wistar rats, confidence limit 1,05l-1, 790 mg/kg",1370 mg/kg
same,LD50,"[1]; po, female wistar rats",< 450 mg/kg
same,inhibition of Schultz-Dale reaction,[2],markedly inhibits Schultz-Dale reaction
same,A/B: No. of collapsed / No. of provoked guinea pigs,[3]; 0.156 mg/kg p.o.,10/10
same,"A/B: collapsed guinea pigs, number in parentheses (percentage)",[3]; 0.156 mg/kg p.o.,100
same,Survival rate (animals),[3]; 0.156 mg/kg p.o.,0/10
same,"Survival rate, number in parentheses (percentage)",[3]; 0.156 mg/kg p.o.,0
same,A/B: No. of collapsed / No. of provoked guinea pigs,[3]; 0.313 mg/kg p.o.,10/10
same,"A/B: collapsed guinea pigs, number in parentheses (percentage)",[3]; 0.313 mg/kg p.o.,100
same,Survival rate (animals),[3]; 0.313 mg/kg p.o.,10/10
same,"Survival rate, number in parentheses (percentage)",[3]; 0.313 mg/kg p.o.,100
same,significance of difference from non treatment 1,[3]; 0.313 mg/kg p.o.,markedly significant difference
same,z1 (statistical value),[3]; 0.313 mg/kg p.o. vs non treatment 1,> 5
same,A/B: No. of collapsed / No. of provoked guinea pigs,[3]; 0.625 mg/kg p.o.,9/10
same,"A/B: collapsed guinea pigs, number in parentheses (percentage)",[3]; 0.625 mg/kg p.o.,90
same,"Survival rate, number in parentheses (percentage)",[3]; 0.625 mg/kg p.o.,100
same,significance of difference from non treatment 1,[3]; 0.625 mg/kg p.o.,markedly significant difference
same,z1 (statistical value),[3]; 0.625 mg/kg p.o. vs non treatment 1,> 5
same,A/B: No. of collapsed / No. of provoked guinea pigs,[3]; 1.25 mg/kg p.o.,4/10
same,"A/B: collapsed guinea pigs, number in parentheses (percentage)",[3]; 1.25 mg/kg p.o.,40
same,Survival rate (animals),[3]; 1.25 mg/kg p.o.,10/10
same,"Survival rate, number in parentheses (percentage)",[3]; 1.25 mg/kg p.o.,100
same,significance of difference from non treatment 1,[3]; 1.25 mg/kg p.o.,markedly significant difference
same,z1 (statistical value),[3]; 1.25 mg/kg p.o. vs non treatment 1,> 5
same,A/B: No. of collapsed / No. of provoked guinea pigs,[3]; 2.50 mg/kg p.o.,1/11
same,"A/B: collapsed guinea pigs, number in parentheses (percentage)",[3]; 2.50 mg/kg p.o.,9.1
same,Survival rate (animals),[3]; 2.50 mg/kg p.o.,11/11
same,"Survival rate, number in parentheses (percentage)",[3]; 2.50 mg/kg p.o.,100
same,significance of difference from non treatment 1,[3]; 2.50 mg/kg p.o.,markedly significant difference
same,p (significant difference from homochlorcyclizine),[3]; [12],< 0.02
same,z2 (statistical value),[3]; [12],2.332
same,z1 (statistical value),[3]; 2.50 mg/kg p.o. vs non treatment 1,> 5
same,A/B: No. of collapsed / No. of provoked guinea pigs,[3]; 10.0 mg/kg p.o.,0/6
same,"A/B: collapsed guinea pigs, number in parentheses (percentage)",[3]; 10.0 mg/kg p.o.,0
same,Survival rate (animals),[3]; 10.0 mg/kg p.o.,6/6
same,"Survival rate, number in parentheses (percentage)",[3]; 10.0 mg/kg p.o.,100
same,p (significant difference from non treatment 2),[3]; 10.0 mg/kg p.o.,< 0.0005
same,p for z2 (significant difference from non treatment 1 (so in the source)),[3]; 10.0 mg/kg p.o.,< 0.005
same,z2 (statistical value),[3]; 10.0 mg/kg p.o. vs non treatment 1 (so in the source),2.844
same,z1 (statistical value),[3]; 10.0 mg/kg p.o. vs non treatment 2,3.321
same,inhibition of asthma attack compared to non treatment and homochlorcyclizine,"[3]; oral, 2 hrs. prior to histamine",markedly and significantly inhibits asthma attack
same,Inhibition % of extravasation of blue dye,[4],57.8%
same,inhibitory rate on histamine-induced contraction,[5],124%
same,LD50,"[6]; female ddN mice, confidence limit 418-563 mg/kg",485 mg/kg
same,LD50,"[6]; male ddN mice, confidence limit 507-768 mg/kg",625 mg/kg
same,toxicity compared with homochlorcyclizine,[7],lower toxicity than that of homochlorcyclizine
same,anti acetylcholinergic action,[8],not found to have anti acetylcholinergic action
same,severe asthma attack,[9]; 5 mg/kg dose,suppresses completely severe asthma attack
same,A/B: No. of collapsed / No. of provoked guinea pigs,[9]; [13],3/6
same,"A/B: collapsed guinea pigs, percentage",[9]; [13],50%
same,Survival rate (animals),[9]; [13],5/6
same,"Survival rate, percentage",[9]; [13],83.3%
same,A/B: No. of collapsed / No. of provoked guinea pigs,[9]; [14],4/10
same,"A/B: collapsed guinea pigs, percentage",[9]; [14],40%
same,Survival rate (animals),[9]; [14],10/10
same,"Survival rate, percentage",[9]; [14],100%
same,A/B: No. of collapsed / No. of provoked guinea pigs,[9]; [15],0/6
same,"A/B: collapsed guinea pigs, percentage",[9]; [15],0%
same,Survival rate (animals),[9]; [15],6/6
same,"Survival rate, percentage",[9]; [15],100%
same,A/B: No. of collapsed / No. of provoked guinea pigs,[9]; [16],0/6
same,"A/B: collapsed guinea pigs, percentage",[9]; [16],0%
same,Survival rate (animals),[9]; [16],6/6
same,"Survival rate, percentage",[9]; [16],100%
same,A/B: No. of collapsed / No. of provoked guinea pigs,[9]; [17],0/5
same,"A/B: collapsed guinea pigs, percentage",[9]; [17],0%
same,Survival rate (animals),[9]; [17],5/5
same,"Survival rate, percentage",[9]; [17],100%
same,incidences of asthma attack vs non treated,[9]; more than 0.5 mg/kg dose,inhibits significantly
same,collapse,[9]; more than oral 5 mg/kg dose,completely inhibits collapse
same,inhibitory action on asthma attack compared with homochlorcyclizine,[9]; oral,more significant; also recorded: prohibits the asthma attack more significantly than that of homochlorocyclizine
same,shock death,[9]; oral 1 mg/kg,inhibits shock death
same,p (statistical significance vs non treatment),[9]; [13],< 0.01
same,z1 (statistical value vs non treatment),[9]; [13],2.618
same,p (statistical significance vs non treatment),[9]; [14],< 0.0001
same,z1 (statistical value vs non treatment),[9]; [14],4.032
same,p (statistical significance vs non treatment),[9]; [15],< 0.001
same,z1 (statistical value vs non treatment),[9]; [15],3.686
same,p (present compound vs homochlorcyclizine),[9]; [16],< 0.04
same,p (statistical significance vs non treatment),[9]; [16],< 0.0001
same,z1 (statistical value vs non treatment),[9]; [16],4.112
same,"z2 (statistical value, present compound vs homochlorcyclizine)",[9]; [16],2.067
same,p (present compound vs homochlorcyclizine),[9]; [17],< 0.05
same,p (statistical significance vs non treatment),[9]; [17],< 0.001
same,z1 (statistical value vs non treatment),[9]; [17],3.26
same,"z2 (statistical value, present compound vs homochlorcyclizine)",[9]; [17],2.008
same,"inhibition of reaginlike, mast cell sensitizing antibody-induced PCA","[10]; Wistar rat, oral",markedly inhibits
same,Inhibition % of extravasation of blue dye,[10]; 25 mg/kg po,64.3%
same,Inhibition % of extravasation of blue dye,[10]; 50 mg/kg po,88.8%
same,"inhibition of reaginlike, mast cell sensitizing antibody-induced PCA","[11]; SD rat, oral",markedly inhibits
same,Inhibition % of extravasation of blue dye,"[11]; SD, horse serum, 100 mg/kg po, 3 hrs. before challenge, 48 hrs. after sensitization",94.8% and 94%
